For 21 compounds, IC50 and Kd results are on record in US20120129842A1, “BISTHIAZOLE INHIBITORS OF PRO-MATRIX METALLOPROTEINASE ACTIVATION” (priority 2010, published 2012).

Assay [1] deals with T1, full-length proMMP9(1-707) (SEQ ID NO:1) (Homo sapiens, UniProt P14780, R574P).
T1 construct: made in house; host or cells: HEK293 (proMMP9, secreted); E. coli (MMP3)
Kind of assay: proMMP9/MMP3 P126 Activation Assay. The format is biochemical. The following applies: 20 nM proMMP9, 20 nM MMP3, 80 min 37° C. The protocol: The reaction volume was 50 μL. […] Reactivity of residual MMP3 towards P-126 substrate was minimal under these conditions.

Assay [2] has as its target T2, proMMP9(67-444;ΔFnII) (SEQ ID NO:5) (Homo sapiens, UniProt P14780, DEL216-390).
T2 construct: start methionine (N); made in house; host or cells: E. coli BL21(DE3) RIL
T2 sequence (P14780 with tags, fused parts or gaps DEL216-390): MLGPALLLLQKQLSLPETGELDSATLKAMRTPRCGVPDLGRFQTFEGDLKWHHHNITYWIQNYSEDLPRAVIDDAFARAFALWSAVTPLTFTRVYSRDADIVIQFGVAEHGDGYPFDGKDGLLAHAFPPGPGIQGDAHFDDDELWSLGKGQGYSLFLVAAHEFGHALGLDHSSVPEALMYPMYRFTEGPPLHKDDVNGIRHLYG
Kind of assay: ThermoFluor binding assay with proMMP9(67-444;ΔFnII). To be noted: pH 7.0. In a few lines:
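Thermal shift binding with 3.5 μM proMMP9(67-444;ΔFnII) and 50 μM 1,8-ANS in 50 mM HEPES pH 7.0, 100 mM NaCl, 2.5 mM MgCl2, 300 μM CaCl2, 0.001% Tween-20, with serially diluted compound. Heated 40 to 90° C at 1° C/min; fluorescence-derived Tm fitted using DSC/ThermoFluor thermodynamic parameters.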

Assay [3] deals with T3, proMMP9(20-445;ΔFnII) (SEQ ID NO:6) (Homo sapiens, UniProt P14780, DEL216-390).
T3 construct: start methionine (N); made in house; host or cells: E. coli BL21(DE3) RIL
T3 sequence (P14780 with tags, fused parts or gaps DEL216-390): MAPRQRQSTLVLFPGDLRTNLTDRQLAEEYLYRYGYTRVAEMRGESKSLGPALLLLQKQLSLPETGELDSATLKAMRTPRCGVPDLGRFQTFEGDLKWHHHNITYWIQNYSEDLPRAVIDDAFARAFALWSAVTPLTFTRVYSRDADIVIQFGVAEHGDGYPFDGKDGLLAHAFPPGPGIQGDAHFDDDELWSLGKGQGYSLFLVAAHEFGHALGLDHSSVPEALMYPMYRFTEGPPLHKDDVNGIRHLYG
Kind of assay: ThermoFluor binding assay with proMMP9(20-445;ΔFnII). To be noted: pH 7.0. In a few lines: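 proMMP9(20-445;ΔFnII) at 2.8 μM with 50 μM 1,8-ANS in 50 mM HEPES pH 7.0, 100 mM NaCl, 0.001% Tween-20, 2.5 mM MgCl2, 300 μM CaCl2; compounds serially diluted in DMSO. Heated 40–90 °C at 1 °C/min, fluorescence read at 500±25 nm. Tm fit by standard equations; binding fit using DSC/TF-derived thermodynamic parameters.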

For assay [4], the target named is proMMP13(1-268) (SEQ ID NO:7) (Homo sapiens, UniProt P45452). Kind of assay: ThermoFluor binding assay with proMMP13(1-268). The following applies: pH 7.0. Also on record: 6xHis (C); made in house. An outline of the steps: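 Thermal shift binding with 3.5 μM protein and 25 μM 1,8-ANS in 50 mM HEPES pH 7.0, 100 mM NaCl, 0.001% Tween-20, 2.5 mM MgCl2, 300 μM CaCl2. Samples were heated 40 to 90 °C at 1 °C/min, fluorescence read at 500 nm. Tm shifts across an 11-point DMSO dilution series were fitted with DSC-derived thermodynamic parameters.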

Where a name gives a salt, the structure may show the parent alone.

T1 sequence (P14780 20-707 R574P): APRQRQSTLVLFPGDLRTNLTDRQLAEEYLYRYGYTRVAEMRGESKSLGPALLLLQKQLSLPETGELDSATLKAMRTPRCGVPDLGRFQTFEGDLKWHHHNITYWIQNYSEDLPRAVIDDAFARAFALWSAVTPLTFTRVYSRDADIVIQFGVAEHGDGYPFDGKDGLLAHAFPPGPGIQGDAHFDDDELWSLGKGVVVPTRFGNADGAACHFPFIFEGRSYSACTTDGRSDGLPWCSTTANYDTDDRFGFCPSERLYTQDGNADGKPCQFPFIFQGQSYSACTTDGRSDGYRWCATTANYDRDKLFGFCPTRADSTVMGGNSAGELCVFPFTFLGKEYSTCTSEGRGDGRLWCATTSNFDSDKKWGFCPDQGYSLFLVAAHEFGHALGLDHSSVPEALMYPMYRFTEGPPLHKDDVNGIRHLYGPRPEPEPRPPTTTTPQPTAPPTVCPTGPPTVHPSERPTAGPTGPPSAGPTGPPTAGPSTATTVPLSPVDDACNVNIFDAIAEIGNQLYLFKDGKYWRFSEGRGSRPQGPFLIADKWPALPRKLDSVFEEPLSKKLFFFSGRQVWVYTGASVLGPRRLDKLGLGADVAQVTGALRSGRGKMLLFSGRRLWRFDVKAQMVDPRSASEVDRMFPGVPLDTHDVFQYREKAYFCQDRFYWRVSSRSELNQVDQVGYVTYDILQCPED

On to `COc1ccc(C(=O)O)cc1Nc1nc(-c2sc(N)nc2C)cs1` [Example 55, 3-(2′-Amino-4′-methyl-[4,5′]bithiazolyl-2-ylamino)-4-methoxy-benzoic acid.HBr], for which it took 740 nM to reach half-maximal inhibition in assay [1] (IC50). Moreover, the values for the Kd in assay [2], in assay [3] and in assay [4] were 1700 nM, 2500 nM and 9800 nM, respectively.

For `COc1ccc(C(=O)O)cc1Nc1nc(-c2sc(NC(C)=O)nc2C)cs1` [Example 57, 3-(2′-Acetylamino-4′-methyl-[4,5′]bithiazolyl-2-ylamino)-4-methoxy-benzoic acid.HBr], it took 1900 nM to reach half-maximal inhibition in assay [1] (IC50). Moreover, the equilibrium dissociation constant (Kd) – broadly, the constant that tells how readily two partners part at equilibrium – in assay [2] is 1700 nM; in assay [3], 11000 nM; in assay [4], greater than 95000 nM.

As to `COc1ccc(C(=O)NCc2ccccc2)cc1Nc1nc(-c2sc(NC(C)=O)nc2C)cs1` [Example 59, 3-(2′-Acetylamino-4′-methyl-[4,5′]bithiazolyl-2-ylamino)-N-benzyl-4-methoxy-benzamide.TFA], in assay [1], half-maximal inhibition (IC50) required 7500 nM. The dissociation constant Kd in assay [2] stood at 2700 nM; in assay [3], 2000 nM; in assay [4], 20000 nM.

On to `Cc1nc(N)sc1-c1csc(Nc2cc(S(N)(=O)=O)ccc2OC(C)C)n1` [Example 60, 3-(2′-Amino-4′-methyl-[4,5′]bithiazolyl-2-ylamino)-4-isopropoxy-benzenesulfonamide.TFA], for which the IC50 (usually the concentration at which inhibition is half-maximal) in assay [1] is 350 nM. Besides, the values for the dissociation constant Kd in assay [2], in assay [3] and in assay [4] were 110 nM, 58 nM and 70 nM, respectively.

As to `Cc1nc(N2CCN(C)CC2)sc1-c1csc(Nc2cc(S(N)(=O)=O)ccc2OC(C)C)n1` [Example 61, 4-Isopropoxy-3-[4′-methyl-2′-(4-methyl-piperazin-1-yl)-[4,5′]bithiazolyl-2-ylamino]-benzenesulfonamide.TFA], the midpoint of inhibition in assay [1], the IC50, lay at 380 nM. The dissociation constant (Kd) in assay [2] stood at 140 nM; in assay [3], 69 nM; in assay [4], 110 nM.

In the case of `Cc1nc(C)c(-c2nc(Nc3cc(S(N)(=O)=O)ccc3OC(C)C)sc2F)s1` [Example 62, 3-(5-Fluoro-2′,4′-dimethyl-[4,5′]bithiazolyl-2-ylamino)-4-isopropoxy-benzenesulfonamide.TFA], the IC50 in assay [1] turned out to be 1500 nM. In addition, the dissociation constant (Kd) in assay [2] was found to be 670 nM; in assay [3], 300 nM; in assay [4], 160 nM.

`CC(=O)Nc1nc(C)c(-c2csc(Nc3cc(S(N)(=O)=O)ccc3OC(C)C)n2)s1` [Example 63, N-[2-(2-Isopropoxy-5-sulfamoyl-phenylamino)-4′-methyl-[4,5′]bithiazolyl-2′-yl]-acetamide.TFA] displayed a 50% inhibitory concentration (IC50) in assay [1] of 750 nM. For the same compound, the Kd was found to be 790 nM in assay [2], 520 nM in assay [3] and 1300 nM in assay [4].

In the case of `CNC(=O)c1ccc(OC)c(Nc2nc(-c3sc(N)nc3C)cs2)c1` [Example 66, 3-(2′-Amino-4′-methyl-[4,5′]bithiazolyl-2-ylamino)-4-methoxy-N-methyl-benzamide.TFA], the concentration for half-maximal inhibition (IC50) in assay [1] was found to be 4900 nM. Besides, the figures for the Kd in assay [2], in assay [3] and in assay [4] were 1800 nM, 2800 nM and 2600 nM, respectively.

`COc1ccc([N+](=O)[O-])cc1Nc1nc(-c2sc(NC(C)=O)nc2C)cs1` [Example 68, N-[2-(2-Methoxy-5-nitro-phenylamino)-4′-methyl-[4,5′]bithiazolyl-2′-yl]-acetamide.TFA]: the IC50 in assay [1] is 97 nM. Besides, the Kd in assay [2] is 550 nM; in assay [3], 320 nM; in assay [4], 8400 nM.

On to `COc1ccc(N)cc1Nc1nc(-c2sc(NC(C)=O)nc2C)cs1` [Example 69, N-[2-(5-Amino-2-methoxy-phenylamino)-4′-methyl-[4,5′]bithiazolyl-2′-yl]-acetamide], for which 1400 nM corresponded to half-maximal inhibition in assay [1] (IC50). For the same compound, the dissociation constant (Kd) came out at 1100 nM in assay [2], 4800 nM in assay [3] and 25000 nM in assay [4].

As to `CCOc1ccc(S(N)(=O)=O)cc1Nc1nc(-c2sc(C)nc2C)cs1` [Example 70, 3-(2′,4′-Dimethyl-[4,5′]bithiazolyl-2-ylamino)-4-ethoxy-benzenesulfonamide.HCl], the 50% inhibitory concentration (IC50) in assay [1] was 460 nM. Further, the Kd stood at 410 nM in assay [2], 250 nM in assay [3] and 1100 nM in assay [4].

`Cc1nc(N)sc1-c1csc(Nc2cc(C#N)ccc2OC(C)C)n1` [Example 71, 3-(2′-Amino-4′-methyl-[4,5′]bithiazolyl-2-ylamino)-4-isopropoxy-benzonitrile.HBr]: half-maximal inhibition in assay [1] (IC50) required 870 nM. Besides, the dissociation constant Kd in assay [2] came to 95 nM; in assay [3], 280 nM; in assay [4], 42 nM.

Consider `COc1ccc(S(C)(=O)=O)cc1Nc1nc(-c2sc(NC(C)=O)nc2C)cs1` [Example 74, N-[2-(5-Methanesulfonyl-2-methoxy-phenylamino)-4′-methyl-[4,5]bithiazolyl-2′-yl]acetamide.HBr], for which the half-inhibitory concentration (IC50) in assay [1] turned out to be 2500 nM. Further, the figures for the equilibrium dissociation constant (Kd) in assay [2], in assay [3] and in assay [4] were 500 nM, 1800 nM and 2400 nM, respectively.

Compound `COc1ccc(S(C)(=O)=O)cc1Nc1nc(-c2sc(N)nc2C)cs1` [Example 75, N^2-(5-Methanesulfonyl-2-methoxy-phenyl)-4′-methyl-[4,5′]bithiazolyl-2,2′-diamine.HBr] came in with a concentration for half-maximal inhibition (IC50) in assay [1] of 1600 nM. Further, the dissociation constant Kd in assay [2] came out at 600 nM; in assay [3], 1100 nM; in assay [4], 1500 nM.

`Cc1nc(C)c(-c2csc(Nc3cc(C(=O)O)ccc3OC(C)C)n2)s1` [Example 76, 3-(2′,4′-Dimethyl-[4,5′]bithiazolyl-2-ylamino)-4-isopropoxy-benzoic acid] yielded an IC50 in assay [1] of 430 nM. The Kd in assay [2] worked out at 780 nM; in assay [3], 570 nM; in assay [4] it was 370 nM.

Take `CCOc1ccc(-c2ncco2)cc1Nc1nc(-c2sc(N)nc2C)cs1` [Example 79, N^2-(2-Ethoxy-5-oxazol-2-yl-phenyl)-4′-methyl-[4,5′]bithiazolyl-2,2′diamine.HBr]: in assay [1], the half-inhibitory concentration (IC50) worked out at 550 nM. Further, the Kd in assay [2] is 52 nM; in assay [3], 1200 nM; in assay [4] it was 240 nM.

`CCOc1ccc(-c2ncco2)cc1Nc1nc(-c2sc(C)nc2C)cs1` [Example 80, (2′,4′-Dimethyl-[4,5′]bithiazolyl-2-yl)-(2-ethoxy-5-oxazol-2-yl-phenyl)-amine.TFA] had an IC50 in assay [1] of 650 nM. Moreover, the figures for the Kd in assay [2], in assay [3] and in assay [4] were 1800 nM, 23000 nM and 3600 nM, respectively.

Take `CCOC(=O)c1ccc(OCC)c(Nc2nc(-c3sc(N)nc3C)cs2)c1` [Example 81, 3-(2′-Amino-4′-methyl-[4,5′]bithiazolyl-2-ylamino)-4-ethoxy-benzoic acid ethyl ester.TFA]: in assay [1], the IC50 was determined as 640 nM. The Kd came out at 620 nM in assay [2], 520 nM in assay [3] and 370 nM in assay [4].

The compound `CCOC(=O)c1ccc(OCC)c(Nc2nc(-c3sc(NC(C)=O)nc3C)cs2)c1` [Example 83, 3-(2′-Acetylamino-4′-methyl-[4,5′]bithiazolyl-2-ylamino)-4-ethoxy-benzoic acid ethyl ester.HBr] yielded a concentration for half-maximal inhibition (IC50) in assay [1] of 480 nM. Besides, the Kd in assay [2] was 490 nM; in assay [3] it was 3900 nM; in assay [4] it was 1500 nM.

Consider `COc1ccc(C(N)=O)cc1Nc1nc(-c2sc(NC(C)=O)nc2C)cs1` [Example 85, 3-(2′-Acetylamino-4′-methyl-[4,5′]bithiazolyl-2-ylamino)-4-methoxy-benzamide.HBr], for which, in assay [1], the concentration for half-maximal inhibition (IC50) came out at 270 nM. The values for the dissociation constant Kd in assay [2], in assay [3] and in assay [4] were 750 nM, 3500 nM and 43000 nM, respectively.

In turn, `COC(=O)c1ccc(OC)c(Nc2nc(-c3sc(N)nc3C)cs2)c1` [Example 86, 3-(2′-Amino-4′-methyl-[4,5′]bithiazolyl-2-ylamino)-4-methoxy-benzoic acid methyl ester TFA] returned an IC50 in assay [1] of 610 nM. The values for the Kd in assay [2], in assay [3] and in assay [4] were 200 nM, 1200 nM and 3400 nM, respectively.
